Test results taken from patent publication US20110171279A1, “POLYETHYLENIMINE BIOCIDES” (NDSU RESEARCH FOUNDATION, priority 2009, published 2011).
In brackets after ≈: the same amount, converted by molar mass. Where two headings read alike, the source gives them in different places.

Tests used:
Assay type in all cases: cell-based
Halomonas pacifica = test: Growth reduction / MIC test against Halomonas pacifica; conditions: for MIC: Bisbaumannia pacifica; for Percent reduction in growth of Halomonas pacifica: Table 6
Method: (§1) The antimicrobial properties of the Formulations were determined by measuring the minimum inhibitory concentration (MIC) or by using an adaptation of the MIC test. […] Additional details of the MIC method can be found at Andrews, J. M., Journal of Antimicrobial Chemotherapy (2001) 48, 5-16, incorporated herein by reference in its entirety.
(§2) In accordance with the MIC test, working solutions for each Formulation were prepared by dissolving 100 mg of each Formulation in 10 mL of methanol (Sigma-Aldrich) to generate a 10 mg/mL solution. Next, 10 ml of Guillard's F/2 medium was spiked with 200 μL of the 10 mg/mL Formulation solution to achieve a final concentration of 0.2 mg/mL.
0.2 mL of each H. pacifica concentration was added in triplicate to a 96-well plate. Additionally, 0.2 mL of Guillard's F/2 medium without any H. pacifica or Formulation and 0.2 mL of Guillard's F/2 medium with H. pacifica, but no Formulations, served as negative and positive growth controls, respectively. The 96-well plates were placed in an illuminated growth cabinet with a 16:8 light:dark cycle (photon flux density 33 μmol m^−2 s^−1) for 48 hrs at 18° C. and measured for chlorophyll fluorescence using a multi-well plate spectrophotometer (excitation: 360 nm; emission: 670 nm). The efficacy of each Formulation was measured by determining the percent reduction in diatom growth as a function of Formulation concentration.
(§3) The antimicrobial activity of Formulations 10-12, also derived from ETCS and PEI, was determined toward a suite of marine microorganisms, namely, Pseudoalteromonas atlantica, Cellulophaga lytica, Cobetia marina, and Halomonas pacifica. The antimicrobial activity of Formulations 10-12 was determined toward these marine microorganisms according to the methods of EXAMPLES 5-7. The MIC for each Formulation against each strain is compared to that of the PEI, ETCS, and TCS (alone) in Table 7.

Cobetia marina = test: MIC test against Cobetia marina
Method: as §1, §3

Navicula incerta = test: Growth reduction / MIC test against Navicula incerta in Guillard's F/2 medium, chlorophyll fluorescence; conditions: for Percent reduction in growth of Navicula incerta: Table 4
Method: as §1, §2
0.2 mL of each concentration of each Formulation (spiked with N. incerta) was added in triplicate to a 96-well plate. Additionally, 0.2 mL of Guillard's F/2 medium without any N. incerta or Formulation and 0.2 mL of Guillard's F/2 medium with N. incerta, but no Formulations, served as negative and positive growth controls, respectively. The 96-well plates were placed in an illuminated growth cabinet with a 16:8 light:dark cycle (photon flux density 33 μmol m^−2 s^−1) for 48 hrs at 18° C. and measured for chlorophyll fluorescence using a multi-well plate spectrophotometer (excitation: 360 nm; emission: 670 nm). The efficacy of each Formulation was measured by determining the percent reduction in diatom growth as a function of Formulation concentration.

[1] = test system: Staphylococcus epidermidis; test: Growth reduction / MIC test against Staphylococcus epidermidis in tryptic soy broth, absorbance 600 nm; conditions: for Percent reduction in growth of Staphylococcus epidermidis: Table 2; for MIC: Staphylococcus epidermidis, read-out: S. epidermidis MIC
Method: as §1
as §2, with “tryptic soy broth” for “Guillard's F/2 medium”, “the” for “the 10”
0.2 mL of each concentration of each Formulation (spiked with S. epidermidis) was added in triplicate to a 96-well plate. Additionally, 0.2 mL of tryptic soy broth without any S. epidermidis or Formulation and 0.2 mL of tryptic soy broth with S. epidermidis, but no Formulations, served as negative and positive growth controls, respectively. Plates were then placed in an incubator, at 37° C. for 24 hrs (with shaking), and then measured for growth by taking absorbance measurements at 600 nm with a multi-well plate spectrophotometer (Synergy HT microplate reader, BioTek Instruments, Winooski, Vt.). The efficacy of each Formulation was measured by determining the percent reduction in bacterial growth as a function of Formulation concentration.
For comparison purposes a benzylpiperidino biocide (“Reference 1”) was prepared using ETCS and synthetic methods similar to those described in U.S. Pat. No. 5,036,077, issued Jul. 30, 1991, and incorporated by reference in its entirety. To make Reference 1, 3.9 g of ETCS and 2 g of 4-benzylpiperidine were reacted in 30 mL of methanol. The mixture was heated at 65° C. for 48 hours. Reaction completion was confirmed by ^1H NMR, ^13C NMR, HMQC (2D) NMR and elemental analysis. The antimicrobial activity of Formulations 69-77 and Reference 1 toward S. epidermidis was measured by determining the percent reduction in bacterial growth as a function of concentration, as was done above in EXAMPLE 3.

[2] = test system: Pseudoalteromonas atlantica; test: MIC test against Pseudoalteromonas atlantica
Method: as §1, §3

[3] = Formulation Concentration 0.78125 μg/mL
[4] = Formulation Concentration 1.5625 μg/mL
[5] = Formulation Concentration 3.125 μg/mL
[6] = Formulation Concentration 6.25 μg/mL
[7] = Formulation Concentration 12.5 μg/mL
[8] = Formulation Concentration 25 μg/mL
[9] = Formulation Concentration 50 μg/mL
[10] = Formulation Concentration 100 μg/mL

Compound | Percent reduction in growth of Halomonas pacifica (Halomonas pacifica; [3]) | Percent reduction in growth of Halomonas pacifica (Halomonas pacifica; [4]) | Percent reduction in growth of Halomonas pacifica (Halomonas pacifica; [5]) | Percent reduction in growth of Halomonas pacifica (Halomonas pacifica; [6]) | Percent reduction in growth of Halomonas pacifica (Halomonas pacifica; [7]) | Percent reduction in growth of Halomonas pacifica (Halomonas pacifica; [8]) | Percent reduction in growth of Halomonas pacifica (Halomonas pacifica; [9]) | Percent reduction in growth of Halomonas pacifica (Halomonas pacifica; [10]) | Percent reduction in growth of Navicula incerta (Navicula incerta; [3]) | Percent reduction in growth of Navicula incerta (Navicula incerta; [4]) | Percent reduction in growth of Navicula incerta (Navicula incerta; [5]) | Percent reduction in growth of Navicula incerta (Navicula incerta; [6]) | Percent reduction in growth of Navicula incerta (Navicula incerta; [7]) | Percent reduction in growth of Navicula incerta (Navicula incerta; [8]) | Percent reduction in growth of Navicula incerta (Navicula incerta; [9]) | Percent reduction in growth of Navicula incerta (Navicula incerta; [10]) | Percent reduction in growth of Staphylococcus epidermidis [1, 3] | Percent reduction in growth of Staphylococcus epidermidis [1, 4] | Percent reduction in growth of Staphylococcus epidermidis [1, 5] | Percent reduction in growth of Staphylococcus epidermidis [1, 6] | also measured
Clc1ccc(Oc2ccc(Cl)cc2OCC2CO2)c(Cl)c1 (centres unmarked) [ETCS, 2-((5-chloro-2-(2,4-dichlorophenoxy)phenoxy)methyl)oxirane] | 0.00% | 11.15% | 11.78% | 12.90% | 16.72% | 16.08% | 7.01% | 0.00% | 0.00% | 0.00% | 0.00% | 0.00% | 34.14% | 89.92% | 91.40% | 93.37% | 0.00% | 9.43% | 8.30% | 16.36% | MIC (Halomonas pacifica; Table 7, read-out: H. pacifica MIC): > 100 µg/mL; H. pacifica MIC (Halomonas pacifica; Table 12): >100 µg/mL; MIC (Cobetia marina; Table 7, read-out: C. marina MIC): > 100 µg/mL; Percent reduction in growth of Staphylococcus epidermidis [1, 7]: 18.64%; Percent reduction in growth of Staphylococcus epidermidis [1, 8]: 17.39%; Percent reduction in growth of Staphylococcus epidermidis [1, 9]: 22.16%; Percent reduction in growth of Staphylococcus epidermidis [1, 10]: 9.55%; MIC ([1]; Table 12): > 100 µg/mL; MIC ([2]; Table 7, read-out: P. atlantica MIC): > 100 µg/mL
Oc1cc(Cl)ccc1Oc1ccc(Cl)cc1Cl [TCS, triclosan] | 0.00% | 0.00% | 0.00% | 9.94% | 17.32% | 37.65% | 93.07% | 92.77% | 14.26% | 22.00% | 84.51% | 91.29% | 94.57% | 93.55% | 94.21% | 94.95% | 81.36% | 86.70% | 92.70% | 92.96% | MIC (Halomonas pacifica; read-out: H. pacifica MIC, Table 7): 50 to 100 µg/mL (≈ 173 to 345 µM); MIC (Halomonas pacifica; read-out: H. pacifica MIC, Table 12): 100 µg/mL (≈ 345 µM); MIC (Cobetia marina; read-out: C. marina MIC): > 100 µg/mL; MIC (Navicula incerta; read-out: N. incerta MIC): 3.12 µg/mL (≈ 10.8 µM); Percent reduction in growth of Staphylococcus epidermidis [1, 7]: 93.09%; Percent reduction in growth of Staphylococcus epidermidis [1, 8]: 92.83%; Percent reduction in growth of Staphylococcus epidermidis [1, 9]: 93.09%; Percent reduction in growth of Staphylococcus epidermidis [1, 10]: 93.35%; MIC [1]: 0.781 µg/mL; MIC ([2]; read-out: P. atlantica MIC): 50 µg/mL (≈ 173 µM)
